Experimental data from article PMC10580953, “In vitro and intracellular activities of novel thiopeptide derivatives against macrolide-susceptible and macrolide-resistant Mycobacterium avium complex” (Microbiology Spectrum, 2023).
In brackets after ≈: the same amount, converted by molar mass. Entries after “also recorded” stand apart in the source; their conditions may differ.

Key:
[1] = tested on: M. avium in murine BMDMs; assay: Intracellular anti-MAC activity in infected BMDMs, M. avium; assay type: cell-based, Mycobacterium avium; conditions: M. avium ATCC 700898, 10 µg/mL, 72 hr
Experimental: (§1) BMDMs were obtained from 6-week-old female BALB/c mice. Bone marrow cells were differentiated into BMDMs using Dulbecco’s Modified Eagle Medium (Biowest) supplemented with 10% fetal bovine serum (Biowest) and 10% L929 cell supernatant as previously described ([58]).
(§2) BMDMs were seeded at 4 × 10^5 cells/mL in a 48-well plate and incubated overnight at 37°C. MAC strains were infected at a multiplicity of infection of 3 for 4 h and washed with DPBS twice. The cells were then cultured in the absence or presence of drugs in triplicate wells for 72 h. After incubation, the cells were lysed with 0.05% Triton X-100, and the cell lysates serially diluted with DPBS were spotted on 7H10 agar plates supplemented with OADC to count the number of viable bacteria. Colonies were enumerated after 7 d of incubation at 37°C, and the values are reported as the mean CFU ± standard deviation (SD) per mL. All experiments were repeated at least three times independently.

[2] = Aqueous kinetic solubility; assay type: physicochemical; conditions: for solubility at 2 h: aqueous buffer, kinetic from dmso stock, free form, deionized water pH 7.4, 1% DMSO
Experimental: The aqueous kinetic solubility was determined by preparing a 20 mM DMSO stock solution of test compounds and incubating an aliquot of this solution in deionized water at pH 7.4 to set a 1% final concentration of DMSO. In the case of HCl salt compounds, 1–2 mg of compound was weighed and dissolved in deionized water to yield an approximately 10 mg/mL solution. After initial mixing using brief vortexing and sonication, samples were equilibrated by shaking for 2 h at room temperature. Suspensions or solutions with visible particles were filtered through 0.22 µm PVDF membrane filters. The dissolved drug concentration was analyzed using UPLC-MS. To determine the solubility of the HCl salt, 1 mg of compound was weighed into a 2 mL glass tube, and a fixed volume of deionized water was added to yield an approximately 10 mg/mL solution. The solution was equilibrated by shaking for 24 h at room temperature. After equilibration, the vials were visually examined. If a clear solution was obtained, solubility was reported as >mg/mL.

[3] = tested on: M. avium; assay: MIC by resazurin microtiter assay (REMA), M. avium strains
Experimental: (§4) Reference strains were purchased from the American Type Culture Collection (ATCC; Manassas, VA, USA). […] All strains were cultivated in Middlebrook 7H9 liquid broth (Difco Laboratories, Detroit, MI) supplemented with 10% oleic acid-albumin-dextrose-catalase (OADC) or plated on Middlebrook 7H10 agar (Difco Laboratories) with 10% OADC enrichment at 37°C.
(§5) The MICs of all the reagents were determined using the REMA method based on guidelines by the Clinical and Laboratory Standards Institute ([57]). […] The cultures were diluted to an OD600 = 0.001 in 7H9 broth with 5% OADC. […] Two controls (broth only and bacteria only) were incubated to check for other contamination (broth only) and the growth of tested bacteria (bacteria only).

[4] = tested on: MAC in murine BMDMs; assay: Intracellular anti-MAC activity in infected BMDMs, summary statements for MAC; assay type: cell-based, Mycobacterium avium complex; conditions: for intracellular growth of MAC in BMDMs: MAC-infected BMDMs, 72 h (Fig. 2)
Experimental: as §1, §2

[5] = tested on: M. intracellulare in murine BMDMs; assay: Intracellular anti-MAC activity in infected BMDMs, M. intracellulare; assay type: cell-based, Mycobacterium intracellulare; conditions: M. intracellulare ATCC 13950, 10 µg/mL, 72 hr
Experimental: as §1, §2

[6] = tested on: BMDMs; assay: Cell cytotoxicity test (trypan blue cell counting); assay type: cell-based, BALB/c mice; conditions: 20 µg/mL, overnight incubation (Fig. S4)
Experimental: as §1
Cell viability was evaluated using trypan blue cell counting. BMDMs were plated at 4 × 10^5 cells/mL along with antibiotics in a 48-well cell culture plate. The antibiotics were serially diluted twofold from the highest concentration of 20 μg/mL to 1.25 μg/mL. After overnight incubation at 37°C with 5% CO2, BMDMs were isolated, and viable cells were counted using trypan blue dye exclusion. Cell viability was calculated as a percentage compared to the control. All experiments were repeated at least three times independently.

[7] = tested on: MAC strains; assay: MIC by REMA, summary statements for MAC strains; assay type: cell-based, Mycobacterium avium complex; conditions: Mycobacterium avium; range over tested MAC strains (Table 2); read-out: in vitro MIC for the tested MAC strains
[8] = tested on: M. intracellulare; assay: MIC by resazurin microtiter assay (REMA), M. intracellulare strains
Experimental: as §4, §5

[9] = tested on: macrolide-resistant M. intracellulare; assay: MIC by REMA, macrolide-resistant M. intracellulare strains; conditions: Mycobacterium intracellulare
From the text: (§6) Reference strains were purchased from the American Type Culture Collection (ATCC; Manassas, VA, USA). All clinical MAC isolates, including macrolide-susceptible and macrolide-resistant strains, were kindly provided by Samsung Medical Center (SMC; Seoul, South Korea) and Asan Medical Center (AMC; Seoul, South Korea). All strains were cultivated in Middlebrook 7H9 liquid broth (Difco Laboratories, Detroit, MI) supplemented with 10% oleic acid-albumin-dextrose-catalase (OADC) or plated on Middlebrook 7H10 agar (Difco Laboratories) with 10% OADC enrichment at 37°C.
as §5
(§7) PCR amplification and sequencing for CLR were based on 23S rRNA. The primers and PCR conditions were as reported previously ([59]). PCR was carried out in a final volume of 20 µL and contained EzPCR Basic 5 × premix (ELPIS, Daejeon, South Korea), 13 µL of sterile dH2O, 1 µL of each forward and reverse primer, and 1 µL of template DNA. The PCR products were run on 1% agarose gels and purified using a NEXprep Gel/PCR Purification Mini Kit (Geneslabs, Gyeonggi, South Korea) for DNA cleanup. Purified PCR products were sequenced by Sanger sequencing in Bionics (Seoul, South Korea) with their gene-specific forward and reverse primers. Sequences obtained from Bionics were subjected to BLAST searches to compare nucleotide sequences with reference strains.

[10] = tested on: macrolide-resistant M. avium; assay: MIC by REMA, macrolide-resistant M. avium strains
From the text: as §6, §5, §7

[11] = tested on: M. avium ATCC 700898; conditions: synergism FICI ≤0.5, additive 0.5 < FICI ≤ 1, indifferent 1 < FICI ≤ 4, antagonistic FICI >4
Experimental: (§3) To evaluate the efficacy of the combination of agent A and agent B, a fractional inhibitory concentration (FIC) index was calculated as follows: FICI = (FIC of agent A) + (FIC of agent B) = (MIC of agent A in combination/MIC of agent A alone) + (MIC of agent B in combination/MIC of agent B alone). Synergism is defined as FICI ≤0.5, additive as 0.5 < FICI ≤ 1, indifferent as 1 < FICI ≤ 4, and antagonistic as FICI >4. The cultured bacteria were diluted to a 0.005 OD600 in 7H9 broth containing 5% OADC, and the antimicrobial agents were prepared by serial dilutions to a final concentration of 0.03–4 μg/mL. For the evaluation of inhibitory concentrations, the plates were incubated at 37°C for 5–7 d. Then, MIC values were assessed by REMA, and the FICI was calculated.

[12] = tested on: M. intracellulare ATCC 13950; conditions: synergism FICI ≤0.5, additive 0.5 < FICI ≤ 1, indifferent 1 < FICI ≤ 4, antagonistic FICI >4
Experimental: as §3

[13] = tested on: macrolide-resistant M. avium clinical isolates in BMDMs; assay: Intracellular activity in BMDMs, macrolide-resistant M. avium clinical isolates; assay type: cell-based, Mycobacterium avium; conditions: five macrolide-resistant M. avium clinical isolates, 10 µg/mL, 72 h (Fig. 5)
Experimental: as §1, §2

[14] = tested on: MAC in murine BMDMs; set-up: method as in PMID 33519787; conditions: cited from earlier work
[15] = Mycobacterium avium, ATCC700898
[16] = Mycobacterium intracellulare, ATCC13950, M. intracellulare (ATCC 13950), reference strain
[17] = Mycobacterium intracellulare, M. intracellulare (SMC#8)
[18] = Mycobacterium intracellulare, M. intracellulare (SMC#12)
[19] = Mycobacterium intracellulare, M. intracellulare (SMC#699)

C/C=C(\NC(=O)c1csc(-c2csc(-c3ccc4c(n3)-c3csc(n3)[C@H]([C@@H](C)O)NC(=O)c3csc(n3)[C@H](C(C)C)NC(=O)c3csc(n3)/C(=C/C)NC(=O)[C@H]([C@@H](C)O)NC(=O)c3csc-4n3)n2)n1)C(=O)NCC(C)=O [MP2, micrococcin P2, reference compound]
intracellular activity (CFU) in BMDMs [1]: ineffective
solubility at 2 h [2]: 0.07 µg/mL (≈ 0.0613 µM)
MIC ([3]; M. avium (SMC#6)): 0.125 µg/mL (≈ 0.109 µM)
MIC ([3]; M. avium (SMC#7)): 0.125 µg/mL (≈ 0.109 µM)
MIC ([3]; M. avium (SMC#1637)): 0.125 µg/mL (≈ 0.109 µM)
MIC ([3]; Mycobacterium avium): 0.125 µg/mL (≈ 0.109 µM)
MIC [3, 15]: 0.125 µg/mL (≈ 0.109 µM)
intracellular growth of MAC in BMDMs [4]: completely abrogated
intracellular activity (CFU) in BMDMs [5]: ineffective
Cell viability [6]: decreased
MIC [7]: 0.125 to 0.5 µg/mL (≈ 0.109 to 0.438 µM)
MIC [8, 16]: 0.125 µg/mL (≈ 0.109 µM)
MIC ([8]; Mycobacterium intracellulare, M. intracellulare (SMC#7)): 0.125 µg/mL (≈ 0.109 µM)
MIC [8, 17]: 0.125 µg/mL (≈ 0.109 µM)
MIC ([8]; Mycobacterium intracellulare, M. intracellulare (SMC#9)): 0.125 µg/mL (≈ 0.109 µM)
MIC [8, 18]: 0.125 µg/mL (≈ 0.109 µM)
MIC [8, 19]: 0.125 µg/mL (≈ 0.109 µM)
MIC ([8]; Mycobacterium intracellulare, M. intracellulare (SMC#831)): 0.125 µg/mL (≈ 0.109 µM)
MIC ([8]; Mycobacterium intracellulare, M. intracellulare (SMC#2087)): 0.125 µg/mL (≈ 0.109 µM)

C/C=C1\NC(=O)[C@H]([C@@H](C)O)NC(=O)c2csc(n2)-c2ccc(-c3nc(-c4nc(C(=O)NC5(C(=O)NCCCN6CCOCC6)CC5)cs4)cs3)nc2-c2csc(n2)[C@H]([C@@H](C)O)NC(=O)c2csc(n2)[C@H](C(C)C)NC(=O)c2csc1n2 [AJ-037]
solubility at 2 h [2]: 103 µg/mL (≈ 84.9 µM)
Fold increase, HCl salt ([2]; solubility of HCl salt compared to MP2): ×71,428 fold
Fold increase, Free form ([2]; solubility of free form compared to MP2): ×1,471 fold
solubility ([2]; thermodynamic from solid, HCl salt in deionized water): 5000 µg/mL
MIC ([9]; M. intracellulare (AMC#24), 23S rRNA A2058/A2059 G/A): 0.125 µg/mL (≈ 0.103 µM)
MIC ([9]; M. intracellulare (SMC#104), 23S rRNA A2058/A2059 G/A): 0.125 µg/mL (≈ 0.103 µM)
MIC ([9]; M. intracellulare (SMC#414), 23S rRNA A2058/A2059 A/G): 0.125 µg/mL (≈ 0.103 µM)
MIC ([10]; M. avium (SMC#1216), 23S rRNA A2058/A2059 C/A): 0.125 µg/mL (≈ 0.103 µM)
MIC ([10]; Mycobacterium avium): 0.125 µg/mL (≈ 0.103 µM)
MIC ([10]; Mycobacterium avium, M. avium (SMC#420), 23S rRNA A2058/A2059 C/A): 0.5 µg/mL (≈ 0.412 µM)
MIC ([10]; Mycobacterium avium, M. avium (SMC#422), 23S rRNA A2058/A2059 A/G): 1 µg/mL (≈ 0.824 µM)
MIC ([10]; Mycobacterium avium, M. avium (SMC#1213), 23S rRNA A2058/A2059 T/A): 0.5 µg/mL (≈ 0.412 µM)
MIC ([3]; M. avium (SMC#7)): 0.25 µg/mL (≈ 0.206 µM)
MIC ([3]; Mycobacterium avium): 0.25 µg/mL (≈ 0.206 µM)
MIC [3, 15]: 0.25 µg/mL (≈ 0.206 µM)
MIC ([3]; Mycobacterium avium, M. avium (SMC#6)): 0.125 µg/mL (≈ 0.103 µM)
MIC ([3]; Mycobacterium avium, M. avium (SMC#1637)): 0.125 µg/mL (≈ 0.103 µM)
intracellular growth of MAC in BMDMs [4]: remarkably inhibited the intracellular growth of MAC to a similar degree as CLR; also recorded: significantly reduced the number of MAC CFUs inside macrophages
intracellular activity in BMDMs infected with macrolide-resistant MAC clinical isolates ([4]; macrolide-resistant MAC, 10 µg/mL, 72 h (Fig. 5 and 6)): significant decrease in CFUs
Cell viability [6]: decreased
drug-drug interaction with CLR [11]: strongest synergistic effect; also recorded: Synergistic effects
drug-drug interaction with CLR [12]: relatively weak but synergistic effect; also recorded: Synergistic effects
MIC ([8]; M. intracellulare (SMC#9)): 0.125 µg/mL (≈ 0.103 µM)
MIC ([8]; M. intracellulare (SMC#831)): 0.125 µg/mL (≈ 0.103 µM)
MIC ([8]; M. intracellulare (SMC#2087)): 0.125 µg/mL (≈ 0.103 µM)
MIC ([8]; Mycobacterium intracellulare): 0.125 µg/mL (≈ 0.103 µM)
MIC [8, 16]: 0.25 µg/mL (≈ 0.206 µM)
MIC [8, 17]: 0.25 µg/mL (≈ 0.206 µM)
MIC [8, 18]: 0.25 µg/mL (≈ 0.206 µM)
MIC [8, 19]: 0.25 µg/mL (≈ 0.206 µM)
intracellular bacterial growth in BMDMs [13]: notably inhibited intracellular bacterial growth

CO[C@H]1/C=C/O[C@@]2(C)Oc3c(C)c(O)c4c(O)c(c(/C=N/N5CCN(C)CC5)c(O)c4c3C2=O)NC(=O)/C(C)=C\C=C\[C@H](C)[C@H](O)[C@@H](C)[C@@H](O)[C@@H](C)[C@H](OC(C)=O)[C@@H]1C [rifampicin]
intracellular activity against MAC [14]: little intracellular activity
